# Reference: the NIST ThermoML archive (doi:10.1016/j.jct.2018.02.025)
# Several values for one entry are separate records, joined by “and”; a condition that tells them apart may be missing. Equal entries are not always repeated. Numbers after ± are expanded uncertainties.
# Settings: Transpiration method
compound,measurement,setting,value
c1ccc(-c2ccccc2)cc1 [biphenyl],vapor or sublimation pressure,"295.4 K, Crystal",0.00091 ± 7e-05 kPa
same,vapor or sublimation pressure,"298.2 K, Crystal",0.00126 ± 0.0001 kPa
same,vapor or sublimation pressure,"303.3 K, Crystal",0.00236 ± 0.00016 kPa
same,vapor or sublimation pressure,"308.2 K, Crystal",0.00383 ± 0.00026 kPa
same,vapor or sublimation pressure,"313.2 K, Crystal",0.00653 ± 0.00046 kPa
same,vapor or sublimation pressure,"315.4 K, Crystal",0.00777 ± 0.00054 kPa
same,vapor or sublimation pressure,"318.3 K, Crystal",0.01045 ± 0.00072 kPa
same,vapor or sublimation pressure,"323.5 K, Crystal",0.01637 ± 0.0011 kPa
same,vapor or sublimation pressure,"325.8 K, Crystal",0.02135 ± 0.0014 kPa
same,vapor or sublimation pressure,"328.4 K, Crystal",0.02749 ± 0.0018 kPa
same,vapor or sublimation pressure,"331.3 K, Crystal",0.03389 ± 0.0022 kPa
same,vapor or sublimation pressure,"333.4 K, Crystal",0.0404 ± 0.0026 kPa
same,vapor or sublimation pressure,"335.8 K, Crystal",0.04928 ± 0.0032 kPa
same,vapor or sublimation pressure,"338.4 K, Crystal",0.06189 ± 0.004 kPa
same,vapor or sublimation pressure,"345.7 K, Liquid",0.1041 ± 0.011 kPa
same,vapor or sublimation pressure,"347.7 K, Liquid",0.1176 ± 0.013 kPa
same,vapor or sublimation pressure,"348.3 K, Liquid",0.1226 ± 0.013 kPa
same,vapor or sublimation pressure,"350.4 K, Liquid",0.1376 ± 0.015 kPa
same,vapor or sublimation pressure,"353.3 K, Liquid",0.1597 ± 0.017 kPa
same,vapor or sublimation pressure,"358.3 K, Liquid",0.2153 ± 0.023 kPa
same,vapor or sublimation pressure,"363.3 K, Liquid",0.2837 ± 0.03 kPa
same,vapor or sublimation pressure,"368.2 K, Liquid",0.3498 ± 0.037 kPa and 0.3659 ± 0.039 kPa
same,vapor or sublimation pressure,"373.1 K, Liquid",0.4791 ± 0.051 kPa
same,vapor or sublimation pressure,"375.4 K, Liquid",0.5425 ± 0.058 kPa
same,vapor or sublimation pressure,"376.2 K, Liquid",0.5682 ± 0.061 kPa
